# Values quoted from earlier work in US20170246115A1, “MEDICINE” (KOWA COMPANY, LTD., priority 2012, published 2017).
# Details: amorphous form formed on drying crystal form A at a water content of 4% or lower
structure (smiles),measurement,value
O=C([O-])C[C@H](O)C[C@H](O)/C=C/c1c(C2CC2)nc2ccccc2c1-c1ccc(F)cc1.O=C([O-])C[C@H](O)C[C@H](O)/C=C/c1c(C2CC2)nc2ccccc2c1-c1ccc(F)cc1.[Ca+2] [amorphous pitavastatin calcium],storage stability,considerably poor storage stability
